How the values were obtained:
[1] = biological target: T1, recombinant human pancreatic GLK (Homo sapiens, UniProt P35557); test: Enzymatic activity of GLK (G-6-P dehydrogenase coupled, NADP/NADPH, OD 340 nm); format: biochemical; conditions: read-out: activating activity for glucokinase, EC50
T1 construct: 6-His (N); made in house; host or cells: E. coli BL21
T1 sequence (P35557 1-465): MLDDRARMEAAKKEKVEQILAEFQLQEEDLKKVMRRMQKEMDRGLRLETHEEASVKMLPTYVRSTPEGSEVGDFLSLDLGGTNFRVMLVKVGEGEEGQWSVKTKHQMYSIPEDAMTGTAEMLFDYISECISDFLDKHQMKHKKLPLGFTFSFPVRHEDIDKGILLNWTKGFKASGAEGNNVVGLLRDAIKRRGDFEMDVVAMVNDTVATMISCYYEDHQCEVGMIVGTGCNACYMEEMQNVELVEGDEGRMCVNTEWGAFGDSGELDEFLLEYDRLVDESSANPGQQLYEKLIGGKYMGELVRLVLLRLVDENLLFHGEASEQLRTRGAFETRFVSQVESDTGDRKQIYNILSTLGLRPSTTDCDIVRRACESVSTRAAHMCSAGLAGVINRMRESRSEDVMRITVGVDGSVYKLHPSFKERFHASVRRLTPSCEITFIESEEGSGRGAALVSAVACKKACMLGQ

[2] = tested on: Zucker obese fa/fa rats; test: Oral Glucose Tolerance Test (OGTT); format: in vivo, rat; conditions: 10 mg/kg, given orally 120 minutes before glucose 2 g/kg; percent inhibition of blood glucose AUC vs vehicle
Experimental: The animals were fasted for 2 hours before use for experiments. A test compound or a vehicle was given orally 120 minutes before oral administration of a glucose solution at a dose of 2 g/kg body weight. Blood glucose levels were measured using a Accucheck glucometer from tail bled samples taken at different time points before and after administration of glucose (time course of 60 minutes). […] Percent inhibition is determined using the AUC in the vehicle-control group as zero percent inhibition.

[3] = Oral exposure; format: in vivo; conditions: compared with Example II107 in WO 03/015774

| EC50 [1] [nM] | oral exposure [3] | Structure (SMILES) | OGTT activity [2] |
| --- | --- | --- | --- |
| 50 | superior | CC(C)Oc1cc(Oc2ccc(S(C)(=O)=O)cc2)cc(C(=O)Nc2nccs2)c1 [Example 7c, 3-(1-methylethyl)oxy-5-[4-(methylsulfonyl)phenoxy]-N-1,3-thiazol-2-ylbenzamide] | 18% |
| – | – | Cc1cnc(NC(=O)c2cc(OCCc3ccsc3)cc(OC(C)C)c2)s1 [Example II107 in WO 03/015774, reference compound] | not active |

Reference: patent US20080312207A1, “Compounds” (priority 2004, published 2008)
